Assay results from PubChem BioAssay (NCI).
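Following 48 hours of exposure in 96-well plates, responses at five concentrations were used to interpolate endpoints linearly. Abbreviation: GI50, concentration required for 50% inhibition of growth. TGI: concentration producing complete growth inhibition.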

Columns and labels:
Experiment in all cases: NCI-60 cell line screen, 48 h
SK-MEL-2 melanoma = tested on: SK-MEL-2 melanoma
PC-3 prostate = tested on: PC-3 prostate
UACC-257 melanoma = tested on: UACC-257 melanoma
U251 CNS = tested on: U251 CNS
UO-31 renal = tested on: UO-31 renal
HCT-15 colon = tested on: HCT-15 colon
SNB-75 CNS = tested on: SNB-75 CNS
SR leukemia = tested on: SR leukemia
K-562 leukemia = tested on: K-562 leukemia
BT-549 breast = tested on: BT-549 breast
CAKI-1 renal = tested on: CAKI-1 renal
SK-MEL-5 melanoma = tested on: SK-MEL-5 melanoma
OVCAR-5 ovarian = tested on: OVCAR-5 ovarian
MCF7 breast = tested on: MCF7 breast
NCI-H226 lung = tested on: NCI-H226 lung
COLO 205 colon = tested on: COLO 205 colon
OVCAR-4 ovarian = tested on: OVCAR-4 ovarian
HCT-116 colon = tested on: HCT-116 colon
HS 578T breast = tested on: HS 578T breast
SK-OV-3 ovarian = tested on: SK-OV-3 ovarian
LOX IMVI melanoma = tested on: LOX IMVI melanoma
ACHN renal = tested on: ACHN renal
TK-10 renal = tested on: TK-10 renal
NCI/ADR-RES ovarian = tested on: NCI/ADR-RES ovarian
SF-268 CNS = tested on: SF-268 CNS
CCRF-CEM leukemia = tested on: CCRF-CEM leukemia
KM12 colon = tested on: KM12 colon
M14 melanoma = tested on: M14 melanoma
RXF 393 renal = tested on: RXF 393 renal
NCI-H460 lung = tested on: NCI-H460 lung
OVCAR-8 ovarian = tested on: OVCAR-8 ovarian
UACC-62 melanoma = tested on: UACC-62 melanoma
SK-MEL-28 melanoma = tested on: SK-MEL-28 melanoma
HL-60(TB) leukemia = tested on: HL-60(TB) leukemia
MDA-MB-435 = tested on: MDA-MB-435
SNB-19 CNS = tested on: SNB-19 CNS
EKVX NSCLC = tested on: EKVX NSCLC
DU-145 prostate = tested on: DU-145 prostate
MDA-MB-231 breast = tested on: MDA-MB-231 breast
MOLT-4 leukemia = tested on: MOLT-4 leukemia
A549 NSCLC = tested on: A549 NSCLC
SN12C renal = tested on: SN12C renal
OVCAR-3 ovarian = tested on: OVCAR-3 ovarian
SW-620 colon = tested on: SW-620 colon
A498 renal = tested on: A498 renal
RPMI-8226 leukemia = tested on: RPMI-8226 leukemia
HOP-92 NSCLC = tested on: HOP-92 NSCLC
NCI-H522 lung = tested on: NCI-H522 lung
NCI-H23 lung = tested on: NCI-H23 lung
SF-539 CNS = tested on: SF-539 CNS
HT29 colon = tested on: HT29 colon
IGROV1 ovarian = tested on: IGROV1 ovarian
HCC-2998 colon = tested on: HCC-2998 colon
T-47D breast = tested on: T-47D breast
SF-295 CNS = tested on: SF-295 CNS
MALME-3M melanoma = tested on: MALME-3M melanoma

## NCCCn1c2c(c3ccc([N+](=O)[O-])cc3c1=O)C(=O)c1ccccc1-2
SK-MEL-2 melanoma
  GI50: 1.6 µM
  TGI: > 50 µM
PC-3 prostate
  GI50: 0.326 µM
  TGI: 3.61 µM
UACC-257 melanoma
  GI50: 0.495 µM
  TGI: > 16.6 µM
U251 CNS
  GI50: 0.005 µM
  TGI: 0.0534 µM
UO-31 renal
  GI50: 0.11 µM
  TGI: > 50 µM
HCT-15 colon
  GI50: 0.029 µM
  TGI: 0.81 µM
SNB-75 CNS
  GI50: 0.835 µM
  TGI: 2.67 µM
SR leukemia
  GI50: 0.005 µM
  TGI: > 50 µM
K-562 leukemia
  GI50: 0.0335 µM
BT-549 breast
  GI50: 0.235 µM
  TGI: 0.881 µM
CAKI-1 renal
  GI50: 0.0276 µM
  TGI: 0.494 µM
SK-MEL-5 melanoma
  GI50: 0.0956 µM
  TGI: 0.479 µM
OVCAR-5 ovarian
  GI50: 0.414 µM
  TGI: 1.3 µM
MCF7 breast
  GI50: 0.0122 µM
  TGI: > 50 µM
NCI-H226 lung
  GI50: 0.0151 µM
  TGI: 0.118 µM
COLO 205 colon
  GI50: 0.33 µM
  TGI: 3.82 µM
OVCAR-4 ovarian
  GI50: 0.116 µM
  TGI: 0.47 µM
HCT-116 colon
  GI50: 0.0205 µM
HS 578T breast
  GI50: 0.657 µM
  TGI: 2.29 µM
SK-OV-3 ovarian
  GI50: 0.631 µM
  TGI: 2.28 µM
LOX IMVI melanoma
  GI50: 0.0173 µM
  TGI: 0.225 µM
ACHN renal
  GI50: 0.0198 µM
  TGI: 0.0885 µM
TK-10 renal
  GI50: 0.212 µM
  TGI: 1.83 µM
NCI/ADR-RES ovarian
  GI50: 0.427 µM
  TGI: 2.41 µM
SF-268 CNS
  GI50: 0.24 µM
  TGI: > 12.2 µM
CCRF-CEM leukemia
  GI50: 0.135 µM
  TGI: > 50 µM
KM12 colon
  GI50: 0.0892 µM
  TGI: 1.23 µM
M14 melanoma
  GI50: 0.161 µM
  TGI: 1.06 µM
RXF 393 renal
  GI50: 0.709 µM
  TGI: 2.1 µM
NCI-H460 lung
  GI50: 0.00887 µM
  TGI: > 50 µM
OVCAR-8 ovarian
  GI50: 0.114 µM
  TGI: 0.77 µM
UACC-62 melanoma
  GI50: 0.102 µM
  TGI: 0.431 µM
SK-MEL-28 melanoma
  GI50: 0.497 µM
HL-60(TB) leukemia
  GI50: 0.031 µM
  TGI: > 19.3 µM
MDA-MB-435
  GI50: 0.322 µM
  TGI: 2.08 µM
SNB-19 CNS
  GI50: 0.0721 µM
  TGI: 7.05 µM
EKVX NSCLC
  GI50: 0.317 µM
  TGI: 1.69 µM
DU-145 prostate
  GI50: 0.0455 µM
  TGI: 0.474 µM
MDA-MB-231 breast
  GI50: 0.136 µM
  TGI: 0.472 µM
MOLT-4 leukemia
  GI50: 0.114 µM
  TGI: > 50 µM
A549 NSCLC
  GI50: 0.0233 µM
SN12C renal
  GI50: 0.0297 µM
  TGI: 0.16 µM
OVCAR-3 ovarian
  GI50: 0.0966 µM
  TGI: 0.525 µM
SW-620 colon
  GI50: 0.0215 µM
  TGI: 1.24 µM
A498 renal
  GI50: 0.277 µM
  TGI: 1.45 µM
RPMI-8226 leukemia
  GI50: 0.0284 µM
HOP-92 NSCLC
  GI50: 0.34 µM
  TGI: 1.72 µM
NCI-H522 lung
  GI50: 0.462 µM
  TGI: > 50 µM
NCI-H23 lung
  GI50: 0.078 µM
  TGI: 2.42 µM
SF-539 CNS
  GI50: 0.138 µM
  TGI: 0.596 µM
HT29 colon
  GI50: 0.0785 µM
  TGI: 1.14 µM
IGROV1 ovarian
  GI50: 0.215 µM
  TGI: > 50 µM

## C(=C\c1ccc(-c2cn3cc(/C=C/C=N/NC4=NCCN4)ccc3n2)cc1)/C=N/NC1=NCCN1
SK-MEL-2 melanoma
  TGI: 4.51 µM
PC-3 prostate
  TGI: 3.97 µM
U251 CNS
  TGI: 2.26 µM
UO-31 renal
  TGI: 19.8 µM
HCT-15 colon
  TGI: > 100 µM
SR leukemia
  TGI: 3.54 µM
CAKI-1 renal
  TGI: 5.61 µM
NCI-H226 lung
  TGI: 3.27 µM
ACHN renal
  TGI: 3.01 µM
TK-10 renal
  TGI: 65.4 µM
NCI/ADR-RES ovarian
  TGI: > 44.9 µM
CCRF-CEM leukemia
  TGI: 4.18 µM
KM12 colon
  TGI: 4.89 µM
RXF 393 renal
  TGI: 4.79 µM
NCI-H460 lung
  TGI: 1.92 µM
OVCAR-8 ovarian
  TGI: 2.67 µM
HCC-2998 colon
  TGI: 2.6 µM
MDA-MB-435
  TGI: 3.54 µM
DU-145 prostate
  TGI: 5.44 µM
MOLT-4 leukemia
  TGI: 5.22 µM
A549 NSCLC
  TGI: 1.98 µM
SW-620 colon
  TGI: 0.77 µM
HOP-92 NSCLC
  TGI: 2.51 µM

## COc1cc(C2CC(c3cccc(Nc4ccncc4)c3)=NN2c2ccc(Cl)cc2)cc(OC)c1OC (stereo not drawn)
SK-MEL-2 melanoma
  GI50: 1.89 µM
  TGI: 3.91 µM
PC-3 prostate
  GI50: 1.4 µM
  TGI: 3 µM
UACC-257 melanoma
  GI50: 1.96 µM
  TGI: 3.84 µM
UO-31 renal
  GI50: 1.15 µM
  TGI: 2.37 µM
HCT-15 colon
  GI50: 1.7 µM
  TGI: 3.28 µM
SNB-75 CNS
  GI50: 1.28 µM
  TGI: 2.85 µM
K-562 leukemia
  GI50: 1.81 µM
  TGI: 4.71 µM
CAKI-1 renal
  GI50: 1.41 µM
  TGI: 2.76 µM
SK-MEL-5 melanoma
  GI50: 1.75 µM
  TGI: 3.14 µM
OVCAR-5 ovarian
  GI50: 1.66 µM
  TGI: 3.13 µM
MCF7 breast
  GI50: 1.72 µM
  TGI: 3.61 µM
NCI-H226 lung
  GI50: 1.66 µM
  TGI: 3.59 µM
COLO 205 colon
  GI50: 2.12 µM
  TGI: 4.79 µM
OVCAR-4 ovarian
  GI50: 1.62 µM
  TGI: 3.08 µM
SK-OV-3 ovarian
  GI50: 1.77 µM
  TGI: 3.43 µM
ACHN renal
  GI50: 1.54 µM
  TGI: 2.88 µM
SF-268 CNS
  GI50: 1.58 µM
  TGI: 3.06 µM
CCRF-CEM leukemia
  GI50: 2.39 µM
  TGI: 6.71 µM
T-47D breast
  GI50: 1.79 µM
  TGI: 4.23 µM
KM12 colon
  GI50: 1.67 µM
  TGI: 3.31 µM
NCI-H460 lung
  GI50: 1.69 µM
  TGI: 3.13 µM
UACC-62 melanoma
  GI50: 1.69 µM
  TGI: 3.14 µM
SF-295 CNS
  GI50: 1.68 µM
  TGI: 3.05 µM
HCC-2998 colon
  GI50: 1.54 µM
  TGI: 2.91 µM
SK-MEL-28 melanoma
  GI50: 1.68 µM
  TGI: 3.12 µM
MDA-MB-435
  GI50: 1.62 µM
  TGI: 3.08 µM
SNB-19 CNS
  GI50: 1.55 µM
  TGI: 2.91 µM
EKVX NSCLC
  GI50: 1.46 µM
  TGI: 2.88 µM
DU-145 prostate
  GI50: 1.78 µM
  TGI: 3.17 µM
MALME-3M melanoma
  GI50: 1.66 µM
  TGI: 3.11 µM
SN12C renal
  GI50: 1.54 µM
  TGI: 2.95 µM
OVCAR-3 ovarian
  GI50: 1.61 µM
  TGI: 3.03 µM
SW-620 colon
  GI50: 1.68 µM
  TGI: 3.19 µM
A498 renal
  GI50: 1.32 µM
  TGI: 6.26 µM
HOP-92 NSCLC
  GI50: 1.25 µM
  TGI: 2.7 µM
NCI-H23 lung
  GI50: 1.67 µM
  TGI: 3.28 µM
SF-539 CNS
  GI50: 1.64 µM
  TGI: 3.05 µM
HT29 colon
  GI50: 1.87 µM
  TGI: 4.82 µM
